Test results reported in patent publication US7232690B1, “Method and device for detecting and isolating pharmacological compounds being contained in substance mixtures” (LTS Lohmann Therapie-Systeme AG, priority 1999, dated 2007).
Values belong to the compound of their own block, whether it stands above or below them.

Legend:
[1] = molecular target: Thrombin (Homo sapiens, UniProt P00734); assay: Thrombin inhibition constant (Ki); type: biochemical; details: read-out: Ki [μmol/l] Thrombin
[2] = tested on: serine protease trypsin; assay: Ultrafiltration target-binding test of non-equimolar amidinophenylalanine mixture with trypsin (Example 2); details: applied 6 8.4, 7 41.25, 10 2.5 μmol/l
Method: Incubation of the substance library and the inhibitor with thrombin took place at room temperature within 1 hour; solvent: 0.9% of NaCl in H2O. The separation of the protein-ligand complexes formed was accomplished by ultrafiltration (centrifugal). All filtration procedures and washes were carried out until dryness of the filters.
Filter: Microcon 10 (Amicon)
Centrifugation conditions: 9981×g, room temperature
Washing steps: 2×, each with 150 μl of 0.9% NaCl in H2O, 4° C.
Ultrafiltration and analysis of the filtrate were followed by washing steps and the liberation of the ligand (the active chemical substance) from the protein-ligand complex retained on the filter by treatment with 200 μl of water/methanol/TFA (49.5/49.5/1) at room temperature.
The blind sample (without thrombin) was treated analogously in all steps so that a comparison of the filtrates was possible. The filtrates obtained in all steps were dried by means of a speed-VAC concentrator, and later dissolved in the corresponding HPLC flow agent of defined amount applying ultrasound and agitation.
Identification of the ligands was accomplished by analytic HPLC: stationary phase Hypersil C 18 BDS, 3 μm, 150*0.3 mm, Fusica (LC Packings)—mobile phase: acetonitrile/water/TFA (35/65/0.01), isocratic, 5 μL/min, λ=[…].
The trypsin inhibitors of 3-amidinophenylalanine represented in the following by their structural formulae, were used as chemical substances, and the serine protease trypsin as target:
The experiments were performed as described in Example 1.

[3] = molecular target: β2-adrenoreceptor (Homo sapiens, UniProt P07550); assay: Ultrafiltration target-binding test of extract of taraxacum with β2-adrenoreceptor membrane preparation (Example 3)
Sequence of β2-adrenoreceptor (P07550 whole entry): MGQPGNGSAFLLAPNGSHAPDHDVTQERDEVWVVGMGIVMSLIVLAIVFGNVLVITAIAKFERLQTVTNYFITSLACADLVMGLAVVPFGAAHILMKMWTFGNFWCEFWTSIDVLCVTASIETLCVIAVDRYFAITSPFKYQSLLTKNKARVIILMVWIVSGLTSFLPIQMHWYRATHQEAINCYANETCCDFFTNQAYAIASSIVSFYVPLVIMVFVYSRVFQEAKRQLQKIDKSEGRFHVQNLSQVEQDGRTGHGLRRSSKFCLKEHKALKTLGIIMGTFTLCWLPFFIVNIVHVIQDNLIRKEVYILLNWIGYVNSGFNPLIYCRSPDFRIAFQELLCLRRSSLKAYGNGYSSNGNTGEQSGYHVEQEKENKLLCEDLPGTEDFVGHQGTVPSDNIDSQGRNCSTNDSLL

[4] = Sample 351, no receptor, extract 1.5 mg (7.5 g/l)
[5] = Sample 355, receptor 1.04 pmol (5.2 nmol/l), extract 1.5 pmol (7.5 nmol/l)
[6] = Sample 356, receptor 1.04 pmol (5.2 nmol/l), extract 1.5 pmol (7.5 nmol/l)
[7] = Sample 360, no receptor, extract 0.3 mg (1.5 g/l)
[8] = Sample 361, receptor 1.04 pmol (5.2 nmol/l), extract 0.3 mg (1.5 g/l)
[9] = Sample 362, no receptor, extract 0.6 mg (3 g/l)
[10] = Sample 363, receptor 1.04 pmol (5.2 nmol/l), extract 0.6 mg (3 g/l)
[11] = Sample 364, no receptor, extract 1.0 mg (5.0 g/l)
[12] = Sample 365, receptor 1.04 pmol (5.2 nmol/l), extract 1.0 mg (5.0 g/l)
[13] = Sample 366, receptor 1.04 pmol (5.2 nmol/l), extract 1.5 mg (7.5 g/l)
[14] = Sample 367, receptor 1.04 pmol (5.2 nmol/l), extract 1.5 mg (7.5 g/l)
[15] = Sample 369, receptor 1.04 pmol (5.2 nmol/l), extract 1.5 mg (7.5 g/l)
[16] = Sample 373, receptor 1.04 pmol (5.2 nmol/l), extract 1.5 mg (7.5 g/l)
[17] = Sample 374, receptor 0.52 pmol (2.6 nmol/l), extract 1.5 mg (7.5 g/l)
[18] = Sample 375, receptor 0.26 pmol (1.3 nmol/l), extract 1.5 mg (7.5 g/l)

Ki [1]: 0.065 µmol/L | 1st Wash ([2]; Sample 261, without trypsin): 3.13 µmol/L | 2nd Wash ([2]; Sample 261, without trypsin): 0.26 µmol/L | Filtrate ([2]; Sample 261, without trypsin): 31.57 µmol/L | Liberation ([2]; Sample 261, without trypsin): 0.13 µmol/L | 1st Wash ([2]; Sample 262, trypsin 50 μmol/l): 3.68 µmol/L | 2nd Wash ([2]; Sample 262, trypsin 50 μmol/l): 1.29 µmol/L | Filtrate ([2]; Sample 262, trypsin 50 μmol/l): 22.22 µmol/L | Liberation ([2]; Sample 262, trypsin 50 μmol/l): 8.49 µmol/L
SMILES: N=C(N)c1cccc(CC(NS(=O)(=O)c2ccc3ccccc3c2)C(=O)N2CCCCC2)c1 (stereo not drawn) [Substance 7]

SMILES: O=C(/C=C/c1ccc(O)c(O)c1)OC(C(=O)O)C(O)C(=O)O (stereo not drawn) [Substance L3, trans-caftarinic acid]
1st Wash [3, 4]: 51.0 nmol/L | 2nd Wash [3, 4]: 8.0 nmol/L | Filtrate [3, 4]: 740.3 nmol/L | Liberation [3, 4]: 11.9 nmol/L | 1st Wash [3, 5]: 88.8 nmol/L | 2nd Wash [3, 5]: 12.9 nmol/L | Filtrate [3, 5]: 353.5 nmol/L | Liberation [3, 5]: 15.8 nmol/L | 1st Wash [3, 6]: 79.0 nmol/L | 2nd Wash [3, 6]: 9.9 nmol/L | Filtrate [3, 6]: 961.9 nmol/L | Liberation [3, 6]: 26.3 nmol/L | 1st Wash [3, 7]: 22.7 nmol/L | 2nd Wash [3, 7]: 0 nmol/L | Filtrate [3, 7]: 411.5 nmol/L | Liberation [3, 7]: 8.1 nmol/L | 1st Wash [3, 8]: 16.5 nmol/L | 2nd Wash [3, 8]: 29.6 nmol/L | Filtrate [3, 8]: 537.0 nmol/L | Liberation [3, 8]: 11.2 nmol/L | 1st Wash [3, 9]: 20.5 nmol/L | 2nd Wash [3, 9]: 5.6 nmol/L | Filtrate [3, 9]: 650.1 nmol/L | Liberation [3, 9]: 3.2 nmol/L | 1st Wash [3, 10]: 54.4 nmol/L | 2nd Wash [3, 10]: 0 nmol/L | Filtrate [3, 10]: 736.9 nmol/L | Liberation [3, 10]: 8.7 nmol/L | 1st Wash [3, 11]: 36.9 nmol/L | 2nd Wash [3, 11]: 3.0 nmol/L | Filtrate [3, 11]: 1034.4 nmol/L | Liberation [3, 11]: 5.3 nmol/L | 1st Wash [3, 12]: 51.7 nmol/L | 2nd Wash [3, 12]: 8.6 nmol/L | Filtrate [3, 12]: 1221.4 nmol/L | Liberation [3, 12]: 9.8 nmol/L | 1st Wash [3, 13]: 102.8 nmol/L | 2nd Wash [3, 13]: 2.3 nmol/L | Filtrate [3, 13]: 2088.5 nmol/L | Liberation [3, 13]: 7.6 nmol/L | 1st Wash [3, 14]: 46.2 nmol/L | 2nd Wash [3, 14]: 15.6 nmol/L | Filtrate [3, 14]: 2310.8 nmol/L | Liberation [3, 14]: 6.3 nmol/L | 1st Wash [3, 15]: 90.8 nmol/L | 2nd Wash [3, 15]: 41.8 nmol/L | Filtrate [3, 15]: 2381.4 nmol/L | Liberation [3, 15]: 7.0 nmol/L | 1st Wash [3, 16]: 91.7 nmol/L | 2nd Wash [3, 16]: 26.6 nmol/L | Filtrate [3, 16]: 2450.0 nmol/L | Liberation [3, 16]: 36.2 nmol/L | 1st Wash [3, 17]: 44.0 nmol/L | 2nd Wash [3, 17]: 7.4 nmol/L | Filtrate [3, 17]: 2593.2 nmol/L | Liberation [3, 17]: 25.3 nmol/L | 1st Wash [3, 18]: 39.7 nmol/L | 2nd Wash [3, 18]: 19.6 nmol/L | Filtrate [3, 18]: 2252.1 nmol/L | Liberation [3, 18]: 19.0 nmol/L

SMILES: COc1cc(/C=C/C(=O)OC(C(=O)O)C(OC(=O)/C=C/c2ccc(O)c(OC)c2)C(=O)O)ccc1O (stereo not drawn) [Substance L7, trans-diferoyl-tartaric acid ester]
1st Wash [3, 4]: 748.2 nmol/L | 2nd Wash [3, 4]: 145.5 nmol/L | Filtrate [3, 4]: 3802.1 nmol/L | Liberation [3, 4]: 22.7 nmol/L | 1st Wash [3, 5]: 909.9 nmol/L | 2nd Wash [3, 5]: 180.4 nmol/L | Filtrate [3, 5]: 1539.6 nmol/L | Liberation [3, 5]: 214.5 nmol/L | 1st Wash [3, 6]: 1117.4 nmol/L | 2nd Wash [3, 6]: 295.9 nmol/L | Filtrate [3, 6]: 2183.1 nmol/L | Liberation [3, 6]: 510.7 nmol/L | 1st Wash [3, 7]: 129.6 nmol/L | 2nd Wash [3, 7]: 6.6 nmol/L | Filtrate [3, 7]: 1268.8 nmol/L | Liberation [3, 7]: 8.6 nmol/L | 1st Wash [3, 8]: 129.6 nmol/L | 2nd Wash [3, 8]: 6.6 nmol/L | Filtrate [3, 8]: 1268.8 nmol/L | Liberation [3, 8]: 8.6 nmol/L | 1st Wash [3, 9]: 176.5 nmol/L | 2nd Wash [3, 9]: 33.7 nmol/L | Filtrate [3, 9]: 1423.2 nmol/L | Liberation [3, 9]: 7.5 nmol/L | 1st Wash [3, 10]: 76.4 nmol/L | 2nd Wash [3, 10]: 104.2 nmol/L | Filtrate [3, 10]: 1740.7 nmol/L | Liberation [3, 10]: 16.9 nmol/L | 1st Wash [3, 11]: 92.7 nmol/L | 2nd Wash [3, 11]: 30.1 nmol/L | Filtrate [3, 11]: 1829.6 nmol/L | Liberation [3, 11]: 89.6 nmol/L | 1st Wash [3, 12]: 74.0 nmol/L | 2nd Wash [3, 12]: 11.2 nmol/L | Filtrate [3, 12]: 2746.8 nmol/L | Liberation [3, 12]: 111.9 nmol/L | 1st Wash [3, 13]: 1425.3 nmol/L | 2nd Wash [3, 13]: 213.1 nmol/L | Filtrate [3, 13]: 4261.6 nmol/L | Liberation [3, 13]: 168.2 nmol/L | 1st Wash [3, 14]: 1509.0 nmol/L | 2nd Wash [3, 14]: 199.2 nmol/L | Filtrate [3, 14]: 6243.7 nmol/L | Liberation [3, 14]: 232.9 nmol/L | 1st Wash [3, 15]: 986.8 nmol/L | 2nd Wash [3, 15]: 221.7 nmol/L | Filtrate [3, 15]: 3505.8 nmol/L | Liberation [3, 15]: 378.7 nmol/L | 1st Wash [3, 16]: 1176.5 nmol/L | 2nd Wash [3, 16]: 285.4 nmol/L | Filtrate [3, 16]: 4900.2 nmol/L | Liberation [3, 16]: 847.8 nmol/L | 1st Wash [3, 17]: 627.7 nmol/L | 2nd Wash [3, 17]: 200.9 nmol/L | Filtrate [3, 17]: 5661.6 nmol/L | Liberation [3, 17]: 538.8 nmol/L | 1st Wash [3, 18]: 631.3 nmol/L | 2nd Wash [3, 18]: 112.3 nmol/L | Filtrate [3, 18]: 4921.4 nmol/L | Liberation [3, 18]: 154.4 nmol/L

1st Wash [3, 4]: 15045 nmol/L | 2nd Wash [3, 4]: 750.8 nmol/L | Filtrate [3, 4]: 5970.7 nmol/L | Liberation [3, 4]: 195.0 nmol/L | 1st Wash [3, 5]: 451.4 nmol/L | 2nd Wash [3, 5]: 100.4 nmol/L | Filtrate [3, 5]: 1482.0 nmol/L | Liberation [3, 5]: 707.0 nmol/L | 1st Wash [3, 6]: 600.1 nmol/L | 2nd Wash [3, 6]: 202.1 nmol/L | Filtrate [3, 6]: 1848.6 nmol/L | Liberation [3, 6]: 2199.1 nmol/L | 1st Wash [3, 7]: 468.9 nmol/L | 2nd Wash [3, 7]: 140.3 nmol/L | Filtrate [3, 7]: 2935.2 nmol/L | Liberation [3, 7]: 34.7 nmol/L | 1st Wash [3, 8]: 146.5 nmol/L | 2nd Wash [3, 8]: 124.3 nmol/L | Filtrate [3, 8]: 1588.2 nmol/L | Liberation [3, 8]: 138.1 nmol/L | 1st Wash [3, 9]: 958.0 nmol/L | 2nd Wash [3, 9]: 351.4 nmol/L | Filtrate [3, 9]: 3446.6 nmol/L | Liberation [3, 9]: 85.4 nmol/L | 1st Wash [3, 10]: 248.3 nmol/L | 2nd Wash [3, 10]: 142.0 nmol/L | Filtrate [3, 10]: 1180.6 nmol/L | Liberation [3, 10]: 257.0 nmol/L | 1st Wash [3, 11]: 1377.0 nmol/L | 2nd Wash [3, 11]: 627.8 nmol/L | Filtrate [3, 11]: 3752.4 nmol/L | Liberation [3, 11]: 151.3 nmol/L | 1st Wash [3, 12]: 626.7 nmol/L | 2nd Wash [3, 12]: 141.6 nmol/L | Filtrate [3, 12]: 2291.6 nmol/L | Liberation [3, 12]: 439.6 nmol/L | 1st Wash [3, 13]: 620.0 nmol/L | 2nd Wash [3, 13]: 181.5 nmol/L | Filtrate [3, 13]: 5581.8 nmol/L | Liberation [3, 13]: 504.8 nmol/L | 1st Wash [3, 14]: 832.5 nmol/L | 2nd Wash [3, 14]: 274.6 nmol/L | Filtrate [3, 14]: 5159.0 nmol/L | Liberation [3, 14]: 616.8 nmol/L | 1st Wash [3, 15]: 478.1 nmol/L | 2nd Wash [3, 15]: 341.9 nmol/L | Filtrate [3, 15]: 7449.7 nmol/L | Liberation [3, 15]: 674.0 nmol/L | 1st Wash [3, 16]: 182.7 nmol/L | 2nd Wash [3, 16]: 277.1 nmol/L | Filtrate [3, 16]: 5562.6 nmol/L | Liberation [3, 16]: 2096.1 nmol/L | 1st Wash [3, 17]: 1062.4 nmol/L | 2nd Wash [3, 17]: 476.6 nmol/L | Filtrate [3, 17]: 8589.0 nmol/L | Liberation [3, 17]: 1015.4 nmol/L | 1st Wash [3, 18]: 921.1 nmol/L | 2nd Wash [3, 18]: 433.9 nmol/L | Filtrate [3, 18]: 10838.5 nmol/L | Liberation [3, 18]: 279.9 nmol/L
SMILES: O=C(/C=C/c1ccc(O)c(O)c1)O[C@@H](C(=O)O)[C@@H](OC(=O)/C=C/c1ccc(O)c(O)c1)C(=O)O [Substance L6, trans-chicorinic acid]
